In patent US8476408B2, “Unacylated ghrelin and analogs as therapeutic agents for vascular remodeling in diabetic patients and treatment of cardiovascular disease” (Alize Pharma SAS, priority 2008, dated 2013):
One block for each substance: values may come before it. Where no end group is shown, it is not given here. The star is where a group is joined. Octanoyl = CCCCCCCC(=O)*

Assays:
[1] = tested on: HIT-T15 β-cells; assay: Survival of cytokine-treated HIT-T15 β-cells (MTT); assay type: cell-based; details: cytokines (IFN-γ/TNF-α/IL-1β), peptides 1 nM to 100 nM
Method: The survival effect of UAG (6-13) (SEQ ID NO: 6), UAG (8-13) (SEQ ID NO: 7), UAG (8-12) (SEQ ID NO: 8), UAG (8-11) (SEQ ID NO: 12), UAG (9-12) (SEQ ID NO: 9) and UAG (9-11) (SEQ ID NO: 10) was assessed in cytokine-treated HIT-T15 β-cells. […] The protective effects of peptides UAG (8-13) (SEQ ID NO: 7) and UAG (8-12) (SEQ ID NO: 8) were found similar to those of UAG (1-14) (SEQ ID NO: 2) and UAG (1-18) (SEQ ID NO: 3). A peptide made of the inverse sequence of UAG (1-14) (SEQ ID NO: 2) and named UAG (14-1) (SEQ ID NO: 11), was used as negative control for these experiments. […] These effects were however lower than those of UAG (6-13) (SEQ ID NO: 6).

[2] = tested on: CAC membranes; assay: Competition binding with [125I-Tyr4]-UAG on CAC membranes; parameters: species or system human; details: 100 nM unlabelled competitor, radioligand 0.25 nM; FIG. 5A
From the text: The specific binding of [^125I-Tyr^4]-UAG (calculated as difference between binding in the absence, control, and in the presence of UAG) represented about 75% of the control value (P<0.001) and was detected either on fresh (0.25 and 0.26 fmol) or frozen-thawed (0.20 and 0.33 fmol) CAC membranes from two different cell preparations.

[3] = tested on: CAC; assay: Detection of ROS in CAC (DCF-DA assay, FACS); assay type: cell-based, human; details: for baseline level of ROS production: compared to untreated cells, FIG. 1B, 1E
Method: Peripheral-blood mononuclear cells (PB-MNC) isolated by Fycoll Histopaque 1077 (Sigma) were resuspended in 20% FBS 199 Medium and plated on fibronectin-coated dishes (Biocoat, Becton Dickinson Labware) as described by Hill et al. (Ref. 19). Human UAG studies were performed on CAC recovered from normal donors and diabetic patients. The purity of sorted cells was assessed by FACS analysis (Ref. 20). For experiments, the isolated CAC were cultured under 5% CO2 at 37° C. for 4 days on 20 μg/ml fibronectin-coated dishes in EGM-2 medium containing 10% FBS, hydrocortisone, human Fibroblast Growth Factor, Vascular Endothelial Growth Factor, Insulin Growth Factor 1, ascorbic acid, human Epidermal Growth Factor, gentamicin and amphotericin-B (Cambrex, Walkersville, Md., USA) alone or in combination with 1 μM UAG and 1.2 mg/ml AGE. In selected experiments, isolated CAC were cultured in EBM-2 medium (Cambrex, Walkersville, Md., USA) supplemented with 10 ng/ml of IL-3. FACS was used to analyze their phenotype (anti-CD45, anti-CD31, anti-CD105, anti-CD14 antibodies were used) (Ref. 22).
Detection of ROS—DCF-DA (0.5 μM final concentration) was added to CAC in the indicated culture conditions. At the indicated times, the cells were subjected to FACS analysis and processed as previously described (Ret. 22). H2O2 was used as positive control.

[4] = tested on: GH secretion; details: compared with Ghrelin-28; cited from earlier work
[5] = tested on: cloned cells; details: cited from earlier work
[6] = tested on: CAC; assay: CAC mobilization assay in healthy subjects and diabetic patients; assay type: in vivo, human; details: diabetic patients compared to normal subjects, 6 hours treatment; FIG. 3B
Method: All the subjects underwent the following testing session: • UAG (3.0 μg/kg/h iv. as infusion for 12 h from 0 to 12 hours); • isotonic saline (infusion from 0 to 12 hours).
All tests were performed starting at 08.30-09.00 a.m. after overnight fasting, 30 minutes after an indwelling catheter had been placed into a forearm vein by slow infusion of isotonic saline. Blood samples were taken at 0 h, 6 h and 12 h.
Mobilization assay—CAC recovered from healthy subjects and diabetic patients, treated with UAG or saline for 6 h and 12 h, were evaluated. Total number of MNC was counted by 3 independent investigators. The percentage of CAC was calculated by comparing CAC obtained from diabetic patients and healthy donors, treated for 6 h and 12 h with UAG, AG or saline, to CAC recovered at time 0.

[7] = tested on: cardiomyocytes; details: Ref. 8; cited from earlier work
[8] = tested on: human arteries; details: Ref. 35; cited from earlier work
[9] = tested on: human microvascular endothelial cells (HMVECs); details: Ref. 4; cited from earlier work
[10] = tested on: human umbilical vein endothelial cells (HUVECs); details: Ref. 5; cited from earlier work

inhibition of binding of [125I-Tyr4]-UAG to CAC membranes [2]: inhibited
Substance: Ser-Pro-Glu-His-Gln-Arg-Val-Gln (SPEHQRVQ; not fully specified (C-terminus); printed as Ser-Pro-Glu-His-Gln-Arg-Val-Gln; listed as Homo sapiens) [UAG (6-13)]
survival effect on cytokine-induced cell death [1]: potently inhibited cytokine-induced cell death
level of ROS production in AGE-cultured cells ([3]; AGE-cultured CAC, FIG. 1C, 1F): reduced
baseline level of ROS production [3]: also reduces the baseline level of ROS production

Substance: UAG (9-11): fragment of unacylated ghrelin, residues 9 to 11 of SEQ ID NO: 1 (HQR)
survival effect on cytokine-induced cell death [1]: no significant effect at both concentrations tested

Substance: GSSFLSPEHQRVQQ [UAG (1-14)]
survival effect on cytokine-induced cell death [1]: similar

Substance: UAG (8-11): fragment of unacylated ghrelin, residues 8 to 11 of SEQ ID NO: 1 (EHQR; listed as Homo sapiens)
survival effect on cytokine-induced cell death [1]: significant survival effect only at 100 nM

Substance: Glu-His-Gln-Arg-Val (EHQRV; listed as Homo sapiens) [UAG (8-12)]
survival effect on cytokine-induced cell death [1]: significant, although reduced protection, only at 10 nM and 100 nM

Substance: des Gln-14 Ghrelin: isoform of ghrelin-28, a 27 amino acid peptide possessing serine 3 modification by n-octanoic acid (GSS(Octanoyl)FLSPEHQRVQRKESKKPPAKLQPR; listed as Homo sapiens)
GH secretion [4]: induces GH secretion with similar potency as Ghrelin-28
Ca2+ fluxes [5]: elicits Ca^2+ fluxes in cloned cells

Substance: EHQRVQ [UAG (8-13)]
survival effect on cytokine-induced cell death [1]: significant protective effect at all the concentrations examined

Substance: UAG (9-12): fragment of unacylated ghrelin, residues 9 to 12 of SEQ ID NO: 1 (HQRV; listed as Homo sapiens)
survival effect on cytokine-induced cell death [1]: significantly increased cell survival at both the concentrations tested

Substance: AG: 28 amino acid peptide with an n-octanoyl modification on the Ser3 residue; endogenous ligand of GHSR (GSS(Octanoyl)FLSPEHQRVQQRKESKKPPAKLQPR; listed as Homo sapiens) [reference compound]
number of recovered CAC [6]: No statistical differences
experimentally-induced cell death [7]: inhibit experimentally-induced cell death
baseline level of ROS production [3]: A protective effect failed to be detected
vasodilator action [8]: vasodilator actions
cell proliferation, migration, in vitro angiogenesis and ERK2 phosphorylation [9]: significantly increased cell proliferation, migration, in vitro angiogenesis and ERK2 phosphorylation
basal and TNF-α-induced chemotactic cytokine production and mononuclear cell adhesion [10]: inhibit basal and TNF-α-induced chemotactic cytokine production and mononuclear cell adhesion

Substance: GSSFLSPEHQRVQQRKES [UAG (1-18)]
survival effect on cytokine-induced cell death [1]: similar
